# Results from PubChem BioAssay (NCI).
#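 Results reflect a 48-hour exposure of cells in 96-well plates to compound at five concentrations. At the TGI there is no net growth.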
# Tests used:
# Assay in all cases: NCI tumour cell line growth inhibition, 48 h
# A498 renal = system: A498 renal
# A549 NSCLC = system: A549 NSCLC
# CAKI-1 renal = system: CAKI-1 renal
# CCRF-CEM leukemia = system: CCRF-CEM leukemia
# COLO 205 colon = system: COLO 205 colon
# DLD-1 colon = system: DLD-1 colon
# DMS 114 small cell lung = system: DMS 114 small cell lung
# DMS 273 small cell lung = system: DMS 273 small cell lung
# EKVX NSCLC = system: EKVX NSCLC
# HCC-2998 colon = system: HCC-2998 colon
# HCT-116 colon = system: HCT-116 colon
# HCT-15 colon = system: HCT-15 colon
# HL-60(TB) leukemia = system: HL-60(TB) leukemia
# HOP-18 NSCLC = system: HOP-18 NSCLC
# HOP-62 NSCLC = system: HOP-62 NSCLC
# HOP-92 NSCLC = system: HOP-92 NSCLC
# HT29 colon = system: HT29 colon
# IGROV1 ovarian = system: IGROV1 ovarian
# K-562 leukemia = system: K-562 leukemia
# KM12 colon = system: KM12 colon
# KM20L2 colon = system: KM20L2 colon
# LOX IMVI melanoma = system: LOX IMVI melanoma
# M19-MEL melanoma = system: M19-MEL melanoma
# MALME-3M melanoma = system: MALME-3M melanoma
# MCF7 breast = system: MCF7 breast
# MOLT-4 leukemia = system: MOLT-4 leukemia
# NCI-H226 lung = system: NCI-H226 lung
# NCI-H23 lung = system: NCI-H23 lung
# NCI-H460 lung = system: NCI-H460 lung
# NCI-H522 lung = system: NCI-H522 lung
# NCI/ADR-RES ovarian = system: NCI/ADR-RES ovarian
# OVCAR-3 ovarian = system: OVCAR-3 ovarian
# OVCAR-4 ovarian = system: OVCAR-4 ovarian
# OVCAR-5 ovarian = system: OVCAR-5 ovarian
# OVCAR-8 ovarian = system: OVCAR-8 ovarian
# P388 leukemia = system: P388 leukemia
# P388/ADR leukemia = system: P388/ADR leukemia
# RPMI-8226 leukemia = system: RPMI-8226 leukemia
# RXF 393 renal = system: RXF 393 renal
# SF-268 CNS = system: SF-268 CNS
# SF-295 CNS = system: SF-295 CNS
# SF-539 CNS = system: SF-539 CNS
# SK-MEL-2 melanoma = system: SK-MEL-2 melanoma
# SK-MEL-28 melanoma = system: SK-MEL-28 melanoma
# SK-MEL-5 melanoma = system: SK-MEL-5 melanoma
# SK-OV-3 ovarian = system: SK-OV-3 ovarian
# SN12C renal = system: SN12C renal
# SN12K1 renal = system: SN12K1 renal
# SNB-19 CNS = system: SNB-19 CNS
# SNB-75 CNS = system: SNB-75 CNS
# SNB-78 CNS = system: SNB-78 CNS
# SW-620 colon = system: SW-620 colon
# U251 CNS = system: U251 CNS
# UACC-257 melanoma = system: UACC-257 melanoma
# UACC-62 melanoma = system: UACC-62 melanoma
# UO-31 renal = system: UO-31 renal
smiles,measurement,setting,value
Cc1c2ccnc(-c3ccccc3)c2cc2c1[nH]c1ccccc12,TGI,A498 renal,10.6 µM
same,TGI,A549 NSCLC,10.3 µM
same,TGI,CAKI-1 renal,6.96 µM
same,TGI,CCRF-CEM leukemia,10.6 µM
same,TGI,COLO 205 colon,6.1 µM
same,TGI,DLD-1 colon,16.1 µM
same,TGI,DMS 114 small cell lung,4.82 µM
same,TGI,DMS 273 small cell lung,4.06 µM
same,TGI,EKVX NSCLC,12.5 µM
same,TGI,HCC-2998 colon,13.2 µM
same,TGI,HCT-116 colon,4.61 µM
same,TGI,HCT-15 colon,9.62 µM
same,TGI,HL-60(TB) leukemia,5.35 µM
same,TGI,HOP-18 NSCLC,8.67 µM
same,TGI,HOP-62 NSCLC,6.61 µM
same,TGI,HOP-92 NSCLC,3.12 µM
same,TGI,HT29 colon,8.14 µM
same,TGI,IGROV1 ovarian,21.4 µM
same,TGI,K-562 leukemia,5.38 µM
same,TGI,KM12 colon,26 µM
same,TGI,KM20L2 colon,6.8 µM
same,TGI,LOX IMVI melanoma,17.6 µM
same,TGI,M19-MEL melanoma,8.48 µM
same,TGI,MALME-3M melanoma,9.31 µM
same,TGI,MCF7 breast,8.59 µM
same,TGI,MOLT-4 leukemia,6.96 µM
same,TGI,NCI-H226 lung,5.23 µM
same,TGI,NCI-H23 lung,19.9 µM
same,TGI,NCI-H460 lung,7.36 µM
same,TGI,NCI-H522 lung,27.7 µM
same,TGI,NCI/ADR-RES ovarian,6.36 µM
same,TGI,OVCAR-3 ovarian,8.99 µM
same,TGI,OVCAR-4 ovarian,32.7 µM
same,TGI,OVCAR-5 ovarian,13.8 µM
same,TGI,OVCAR-8 ovarian,7 µM
same,TGI,P388 leukemia,5.46 µM
same,TGI,P388/ADR leukemia,6.08 µM
same,TGI,RPMI-8226 leukemia,8.25 µM
same,TGI,RXF 393 renal,6.22 µM
same,TGI,SF-268 CNS,32.9 µM
same,TGI,SF-295 CNS,5.45 µM
same,TGI,SF-539 CNS,7 µM
same,TGI,SK-MEL-2 melanoma,7.3 µM
same,TGI,SK-MEL-28 melanoma,19.5 µM
same,TGI,SK-MEL-5 melanoma,2.78 µM
same,TGI,SK-OV-3 ovarian,9.39 µM
same,TGI,SN12C renal,7 µM
same,TGI,SN12K1 renal,5.04 µM
same,TGI,SNB-19 CNS,17.9 µM
same,TGI,SNB-75 CNS,8.16 µM
same,TGI,SNB-78 CNS,30.4 µM
same,TGI,SW-620 colon,46.9 µM
same,TGI,U251 CNS,7.76 µM
same,TGI,UACC-257 melanoma,6.26 µM
same,TGI,UACC-62 melanoma,5.48 µM
same,TGI,UO-31 renal,4.29 µM
